Experimental data as given in US6613875B1, “Cyclic peptide tube” (The Scripps Research Institute, priority 1993, dated 2003).
Square brackets hold non-standard residues; d marks the D form.

Test: Channel-mediated glucose efflux from glucose entrapped unilamellar vesicles, enzyme coupled NADPH assay
Type: biochemical
Conditions: for apparent rate constant of glucose transport: 27° C.
From the text: FIG. 28 illustrates a schematic illustration of channel-mediated glucose transport and the enzyme coupled assay used to monitor the transport activity with respect to the channel structure indicated in FIGS. 27A-B. Formation of a transmembrane pore structure(s) initiates glucose efflux from the liposome which can be directly monitored by measuring the rate of NADPH production. The enzymes and cofactors employed are hydrophilic and thus can not pass through the lipid membrane and are too large to penetrate the channel structure. Therefore, only the released glucose can undergo the enzymatic reaction.
FIG. 29 illustrates the ensuing glucose efflux on the addition of various amounts of the channel forming peptide of FIGS. 27A-B, viz., open circles represent 15.0×10^−6 M; closed circles represent 11.0×10^−6 M; open triangles represent 7.5×10^−6 M; closed triangles represent 5.6×10^−6 M; and open diamonds represent 3.8×10^−6 M. Efflux is expressed in terms of the amount of glucose released as a function of time (sampled at 90 sec intervals). The large unilamellar vesicles used in this study contained 200 mM D-glucose. All curves are background corrected to remove any contribution from the nonspecific glucose leakage from the liposomes.
Glucose transport activity was studied in isotonic solutions using glucose entrapped unilamellar lipid vesicles. Unilamellar vesicles, ˜150 nm in diameter, were prepared by the reverse-phase evaporation method using 1,2-dipalmitoyl-Sn-glycero-3-phosphatidylcholine (DPPC) 1-palmitoyl-2-oleoyl-Sn-glycero-3-phosphatidylcholine (POPC) 1-palmitoyl-2-oleoyl-Sn-glycero-3-phosphatidylserine (POPS), and cholesterol in the ratio 1:1:0.1:1 in a solution containing 50, 100, 150, or 200 mM D-glucose, 100 mM NaCl, and 50 mM Tris buffer pH 7.5, according to the method of F. Szoka et al. in Proc. Natl. Acad. Sci. USA (1978), vol. 75, pages 4194-4198. Liposomes were gel-filtered using Sephadex G-25 in an isotonic buffer containing 50, 100, 150, or 200 mM sucrose, 100 mM NaCl, and 50 mM Tris buffer pH 7.5. The liposome preparation was stored at 4° C. and used within 24 hours of the synthesis. The transport phenomenon was monitored spectrophotometrically at 340 nm for the production of NADPH using an enzyme coupled assay (FIG. 28), according to the method of S. C. Kinsky in Methods in Enzymology; Fleischer, S., Packer, L., Eds; Academic Press: London, 1974; vol. 32, pp 501-513. All experiments were performed on a Spectronic-3000 photodiode-array spectrophotometer using 3 ml quartz cuvettes placed in the thermojacketed multiple cell holder and held at 27° C. In a typical experiment the following solutions were sequentially placed in the cuvettes: 750 ml of buffer (300 mM NaCl, 50 mM Tris pH 7.5, 3.5 mM MgCl2, and 0.15 mM CaCl2), 500 ml of the enzyme solution (8 units.ml^−1 of hexokinase, 16 units.ml^−1 of glucose-6-phosphate dehydrogenase, 2.5 mM ATP, 1.3 mM NADP all dissolved in 200 mM NaCl, 50 mM Tris pH 7.5, 3.5 mM MgCl2, and 0.15 mM CaCl2), and 75 ml of the stock liposome solution^8 (2.6×10^−3 M in phospholipids). Total glucose content in each cuvette was determined by Triton X-100 treatment. Transport was initiated by the addition of an appropriate amount (5, 7.5, 10, 15, or 20 ml) of the peptide solution (1 mM in DMF) to the reference and the sample cuvettes (hexokinase was omitted from the reference sample). […] The production of NADPH was monitored at 340 nm for 1.5 h at 90 second time intervals. […]

Substance | display any glucose transport activity under similar assay conditions (sentence reads 'neither ... nor ... display any glucose transport activity' = none) | apparent rate constant of glucose transport (liposomes with initial glucose concentration 50 mM) | apparent rate constant of glucose transport (liposomes with initial glucose concentration 100 mM) | apparent rate constant of glucose transport (liposomes with initial glucose concentration 150 mM) | apparent rate constant of glucose transport (liposomes with initial glucose concentration 200 mM)
cyclo[-(Trp-D-Leu)3-Gln-D-Leu-] (cyclo(W[dL]W[dL]W[dL]Q[dL]); SMILES CC(C)C[C@H]1NC(=O)[C@H](CCC(N)=O)NC(=O)[C@@H](CC(C)C)NC(=O)[C@H](Cc2c[nH]c3ccccc23)NC(=O)[C@@H](CC(C)C)NC(=O)[C@H](Cc2c[nH]c3ccccc23)NC(=O)[C@@H](CC(C)C)NC(=O)[C@H](Cc2c[nH]c3ccccc23)NC1=O) [eight residue ion channel forming cyclic peptide, approximately 7.5 Å pore] | nor | – | – | – | –
cyclo[-Gln-(D-Leu-Trp)4-D-Leu-] (cyclo(Q[dL]W[dL]W[dL]W[dL]W[dL]); SMILES CC(C)C[C@H]1NC(=O)[C@H](CCC(N)=O)NC(=O)[C@@H](CC(C)C)NC(=O)[C@H](Cc2c[nH]c3ccccc23)NC(=O)[C@@H](CC(C)C)NC(=O)[C@H](Cc2c[nH]c3ccccc23)NC(=O)[C@@H](CC(C)C)NC(=O)[C@H](Cc2c[nH]c3ccccc23)NC(=O)[C@@H](CC(C)C)NC(=O)[C@H](Cc2c[nH]c3ccccc23)NC1=O) [10-residue cyclic peptide forming 10 Å pores that transport glucose] | – | 0.18±0.02 mol(glucose)/mol(peptide)/min^−1 | 0.48±0.05 mol(glucose)/mol(peptide)/min^−1 | 0.74±0.1 mol(glucose)/mol(peptide)/min^−1 | 1.2±0.09 mol(glucose)/mol(peptide)/min^−1
